Data reported in patent EP1255573B1, “COMPOSITIONs comprising monoperphthalic acid useful for treating contact lens” (Novartis AG, priority 2000, dated 2001).

How the values were obtained:
[1] = test system: L929 mammalian fibroblasts; assay: MEM toxicity test (USP standard elution cytotoxicity, trypan blue); format: cell-based; set-up: key to toxicity, MEM level / MEM Result: 0: No cell lysis - Discrete intracytoplasmic granules; 1: Not more than 20% of cells round and loosely attached - occasional lysed cells present; 2: Not more than 50% of cells round - extensive cell lysis and empty areas between cells; 3: Not more than 70% of the cell layers contain rounded cells and/or lysed; 4: Nearly complete destruction of the cell layer
Excerpt: In testing the toxicity of compounds of the compositions disclosed in solution, an MEM test procedure is used. The MEM (Minimum Essential Medium) test procedure is employed to evaluate cytoxicity using standard USP (The United States Pharmacopeial Convention) elution assays. A description of the test procedure is provided herein.
The assay provides a means of evaluating extracts of polymeric materials under direct contact conditions. This method is appropriate for high-density materials and for dose-response evaluations.
Media Preparation: 1X MEM media is prepared by mixing 100 mL Eagle's MEM (with Earl's Salts and Sodium Bicarbonate, without L-glutamine), with 10mL serum, 1 mL-glutamine solution, and 0.5 mL antibiotic solution (L-glutamine and antibiotic solutions are purchased at correct concentrations and stored frozen at -20 °C±2). Eagle's
Before use, a 4 ml aliquot of 10X trypsin is diluted 1:9 with 36 ml of Dulbecco's Phosphate Buffered Saline (PBS) to yield a 0.25% solution. Dulbecco's Saline is available from Mediatech Cellgro. Sterile 35 mm diameter petri dishes or 6 well tissue culture plates are used. Sterile serological pipets are employed in the procedure. Sterile absorbent material (e.g. Kay-Drys or similar material) is used. L929 mammalian fibroblasts (ATCC cell line CCL1, NCTC clone 929) are employed.
Overview of Method: Cell cultures are grown to a near confluent monolayer in 6 well plates (the wells are 35mm). After the test, material is extracted under various conditions (i.e. extracting medium, time, temperature) so as to allow evaluation of extract toxicity in accordance with USP procedures. These procedures define methods to be used to extract materials for in vivo or in vitro toxicity evaluations in accordance with United States Pharmacopoeia (USP). The Sodium Chloride Injection extract is diluted with serum-supplemented cell culture medium at 25% extract concentration. Each culture is examined microscopically after 48 hours using trypan blue for the presence of morphological changes, reduction in cell density or cell lysis induced by the test material.
Cell Layer Preparation: The next step is to tryptanize cells. Next, one determines cell density using standard methods to define standard cell biology methods to be used to determine and adjust the concentration of a cell suspension, i.e. cell density. Then, an adjustment is made to yield a standard cell suspension with a density of 250,000 to 350,000 cell/mL in serum supplemented MEM for L929 cells. Seed cells are placed into 6 well plates by pipetting 2 ml of the standard cell suspension into each well. […]
Exposure to Test Extracts: Exposure to test extracts is determined examining a representative prepared cell culture plate using the microscope to observe the cell monolayer for correct confluency. […]

[2] = Stability of magnesium perphthalate (statement); format: physicochemical
Solubility (statement) = format: physicochemical

O.O.O.O.O.O.O=C([O-])c1ccccc1C(=O)O[O-].[Mg+2] [magnesium perphthalate, magnesium monoperoxyphthalate hexahydrate]
toxicity, MEM Test Result level ([1]; concentrations below 0.5%, generally): 1 (Not more than 20% of cells round and loosely attached - occasional lysed cells present) | toxicity, MEM level ([1]; concentrations of 0.5% and above, with and without saline): 4 | toxicity ([1]; concentrations of about 0.25% and below in a chloride or other halide-containing solution): not toxic | MEM Result ([1]; some test results at below 0.5% magnesium perphthalate): 0 | stability ([2]; in aqueous solution): not stable | stability ([2]; in solid form): stable | solubility (Solubility (statement)): freely soluble
